According to article PMC9065678, “BI 1015550 is a PDE4B Inhibitor and a Clinical Drug Candidate for the Oral Treatment of Idiopathic Pulmonary Fibrosis” (Frontiers in Pharmacology, 2022):

Assays:
PDE7A = target: T1, PDE7A (Homo sapiens, UniProt Q13946); test: Recombinant PDE activity, scintillation proximity assay: PDE7A; assay type: biochemical; conditions: calculated IC50
T1 construct: made in house; host or cells: SF9 insect cells (baculovirus, Bac-To-Bac, pFastbac)
Text: For the preparation of human recombinant PDEs of interest, the Bac-To-Bac baculoviral expression system from Invitrogen (Carlsbad, CA, United States) was used according to the instruction manual. In short, the full-length open reading frames of PDE1C (National Center for Biotechnology Information Gene-Ref-Seq identifier NG_051183), PDE3A (NG_030033), PDE4A (NG_029594, AA 156–886), PDE4C (NG_029629), PDE7A (NG_029614), and PDE9A (NG_047067) were cloned into the plasmid vector pFastbac. For PDE4B and PDE4D, active site fragments were used (PDE4B NG_029038: AA 152–484, PDE4D NG_027957, AA 79–438). The plasmids were transformed into DH10Bac bacteria, SF9 insect cells were transfected with the bacmid DNA, and the resulting baculoviruses were stored and used for further rounds of infections. […] The protein content was measured and an equal volume of 87% (v/v) glycerol was added prior to freezing at −20°C. […] The reaction was stopped by addition of 50 µL of yttrium silicate scintillation proximity assay beads (17.8 mg/mL, 18 mM zinc sulfate in H2O) and the amount of produced [^3H]AMP/[^3H]GMP associated was determined using a Wallac Microbeta scintillation counter. […]

α-SMA protein expression = α-SMA protein expression of TGF-β-stimulated IPF lung fibroblasts (Western blot replacement assay); assay type: cell-based, human
Protocol: Fibroblasts from donors with IPF (IPF-LF) (Asterand, Detroit, MI, United States) were grown in fibroblast basal medium (CC-3131, Lonza Walkersville, Inc., Walkersville, MD, United States) supplemented with FGM-2 SingleQuot Kit Supplements and Growth Factors (CC-4126, Lonza). Cells were grown in a humidified incubator at 37°C and 5% CO2. All assays were performed at passage 7 or 8. For assay set-up, cells were seeded in fibroblast growth medium plus supplements in assay-relevant densities. For TGF-β-stimulated assays, cells were seeded at 4,500 cells per well in 96-well plates. Proliferation assays were performed in 96-well plates at an initial seeding cell density on day 0 of 2,000 cells per well. After 24-h, the cell culture medium was changed to starvation medium (fibroblast basal medium without supplements). After a 24-h starvation period, cells were pre-incubated for 30 min with different concentrations of BI 1015550 plus/minus different concentrations of nintedanib and/or 1 nmol/L PGE2 and stimulated with the assay-relevant stimulus for the indicated time in the presence of the compound.
For determination of α-SMA protein expression, IPF-LF cells were stimulated with TGF-β (4 ng/mL) for 48 h. Lysates were assayed in a Western blot replacement assay (MSD). In short, lysates were pipetted onto high binding plates (MSD) and were sequentially incubated with a mouse anti-human α-SMA antibody (Sigma Aldrich) and an anti-mouse sulfo-tag antibody (MSD). For analysis, an MSD sector imager was used.

[1] = test system: LPS-stimulated TNF-α release; test: LPS-induced TNF-α release in rat whole blood; assay type: cell-based; conditions: LPS 10 µg/mL
Protocol: Heparinized whole blood was collected from the Aorta abdominalis of WI (Han) male rats (Charles River Laboratories, Sulzfeld, Germany) and from healthy male human donors, and treated with 1 µL (rat) or 2.5 µL (human) of BI 1015550 or vehicle [final DMSO concentration 0.5% (v/v)]. Final assay volumes were 200 μL (rat) and 500 μL (human). After incubation for 30 min at 37°C, 95% humidity, and 5% CO2, cultures were treated with LPS [final concentration 10 µg/mL (rat), 0.1 µg/mL (human)] or saline. After 7 h, plates were centrifuged at 3.200 × g at 4°C for 10 min and plasma was used for cytokine measurement. Meso Scale Discovery (MSD) (Rockville, MD, United States) rat and human pro-inflammatory panels were used for detection of TNF-α and IL-6 in rat plasma [diluted 1:2 (v/v)]) and human plasma [negative control undiluted, other samples diluted 1:200 (v/v)] according to the manufacturer’s instructions.

[2] = test system: LPS-induced lung neutrophil influx; test: LPS-induced lung neutrophil influx in male Wistar rats; assay type: in vivo, rat; conditions: oral, data not shown
Text: Compared with other animal species used to study emesis induction by PDE4 inhibitors, like ferrets, dogs, minipigs, or monkeys, Suncus murinus allows the testing of a sufficient number of animals to provide a high statistical power. […] Male Suncus murinus (weight 50–55 g) from Boehringer Ingelheim (Biberach an der Riss, Germany) or male Wistar rats (200–250 g, Charles River), eight animals per group, were used. […] For this purpose, animals in the positive control and treatment groups were put into a circular Plexiglas chamber with 16 pie-like compartments for one animal each, and were consecutively exposed to nebulized LPS for 30 min. The LPS solution used for nebulization contained 1 mg/mL LPS in phosphate-buffered saline (PBS). Nebulization was performed with the commercially available PARI Master® nebulizer with a PARI Master® LL adapter (Pari GmbH, Starnberg, Germany). 4 h after LPS exposure, the animals were anesthetized and euthanized by cervical dislocation. After sacrifice, the trachea was cannulated and bronchoalveolar lavage was performed by instilling and re-aspirating two-times 1 mL (Suncus murinus) or 5 mL (rat) lavage buffer (PBS +2% bovine serum albumin). BALF volumes were recorded manually. Determination of neutrophil numbers in BALF was performed using a blood hemacytometer (Sysmex XT-1800i, Kobe, Japan).

T1 sequence (Q13946 whole entry): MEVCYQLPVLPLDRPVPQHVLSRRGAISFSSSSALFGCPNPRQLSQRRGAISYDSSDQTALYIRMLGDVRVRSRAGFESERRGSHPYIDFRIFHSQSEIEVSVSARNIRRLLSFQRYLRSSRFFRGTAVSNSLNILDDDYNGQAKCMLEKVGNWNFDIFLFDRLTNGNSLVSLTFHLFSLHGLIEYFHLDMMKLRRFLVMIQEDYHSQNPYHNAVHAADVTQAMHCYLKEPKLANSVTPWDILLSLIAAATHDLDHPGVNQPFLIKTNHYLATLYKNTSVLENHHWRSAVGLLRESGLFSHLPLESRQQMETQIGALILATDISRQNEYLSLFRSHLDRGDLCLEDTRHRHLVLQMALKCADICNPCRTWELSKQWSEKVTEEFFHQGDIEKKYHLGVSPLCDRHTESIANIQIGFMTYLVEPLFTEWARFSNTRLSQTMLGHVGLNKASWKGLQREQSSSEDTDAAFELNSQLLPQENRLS

- IC50 (PDE7A): 14000 nM
- IC50 [1]: 91 nM
SMILES: [O-][S+]1CCc2nc(N3CCC(c4ncc(Cl)cn4)CC3)nc(NC3(CO)CCC3)c21 (stereo not shown) [BI 1015550]
- IC50 (α-SMA protein expression; TGF-β (4 ng/mL, 48 h)-stimulated IPF-LF): 210 nM
- Additional inhibitory efficacy on α-SMA protein expression in combination (α-SMA protein expression; combination with nintedanib 10–100 nmol/L): did not result in additional inhibitory efficacy
- Additional inhibitory effects in combination, myofibroblast transformation assay (α-SMA protein expression; combination with pirfenidone (100 µmol/L), data not shown): did not yield any additional inhibitory effects
- Extent of inhibition of TNF-α release [1]: completely inhibited
- ED50 LPS-induced lung neutrophil influx [2]: 0.1 mg/kg
